Experimental data published in article PMC7375689 (Leukemia & lymphoma, 2020).
Read-outs that look alike come from different tables or passages of the source.

Legend:
[1] = single agent panobinostat; cited from earlier work
[2] = patients with relapsed multiple myeloma; cited from earlier work
[3] = single agent vorinostat; cited from earlier work
[4] = Plasma pharmacokinetics of AR-42 in AML patients; type: in vivo, human; conditions: for Tmax: median (SD)
[5] = Toxicity and dose limiting toxicity; type: in vivo, human; conditions: for dose limiting toxicities (DLTs): cycle 1
miR-29b [6] = system: miR-29b
AML cell lines = conditions: cited from earlier work
cancer cells = conditions: cited from earlier work
miR-29b [7] = conditions: cited from earlier work
AML = assay: Clinical response; type: in vivo, human; conditions: of 13 patients enrolled, AR-42 followed by decitabine; responses all in DL3
[8] = 20 mg (day 1, 3, 5), Day 1, cycle 1, plasma, geometric mean (SD)
[9] = 20 mg (day 1, 3, 5), Day 5, cycle 1, plasma, geometric mean (SD)
[10] = 40 mg (day 1, 3, 4, 5), Day 1, cycle 1, plasma, geometric mean (SD)
[11] = 40 mg (day 1, 3, 4, 5), Day 5, cycle 1, plasma, geometric mean (SD)
[12] = 40 mg (day 1, 3, 5), Day 1, cycle 1, plasma, geometric mean (SD)
[13] = 40 mg (day 1, 3, 5), Day 5, cycle 1, plasma, geometric mean (SD)
[14] = AR-42 followed by decitabine, all dose levels, 13 AML patients

Cc1[nH]c2ccccc2c1CCNCc1ccc(/C=C/C(=O)NO)cc1 [panobinostat]
patients who experienced fatigue [1]: 47.4%

Cn1cc(CNCC2CCN(c3ncc(C(=O)NO)cn3)CC2)c2ccccc21 [quisinostat]
cardiac events [2]: grade 3 and 4 cardiac events

O=C(CCCCCCC(=O)Nc1ccccc1)NO [vorinostat]
patients who experienced fatigue [3]: 52%

AR-42
AUC0–4 [4, 8]: 1.59 (2.13) μM h
AUC0–∞ [4, 8]: 1.77 (2.34) μM h
Cl/F (apparent oral clearance) [4, 8]: 36.11 (114.88) L/h
T1/2 [4, 8]: 7.36 (0.42) h
Vz/F (apparent volume of distribution) [4, 8]: 381.33 (1238.57) L
Tmax ([4]; 20 mg (day 1, 3, 5), Day 1, cycle 1, plasma): 2.00 (1.32) h
AUC0–4 [4, 9]: 4.19 (0.54) μM h
AUC0–∞ [4, 9]: 4.63 (0.71) μM h
Cl/F (apparent oral clearance) [4, 9]: 13.84 (2.18) L/h
Cmax [4, 9]: 350 nM
T1/2 [4, 9]: 6.91 (1.11) h
Vz/F (apparent volume of distribution) [4, 9]: 137.94 (14.39) L
Tmax ([4]; 20 mg (day 1, 3, 5), Day 5, cycle 1, plasma): 2.00 (1.32) h
AUC0–4 [4, 10]: 11.33 (3.54) μM h
AUC0–∞ [4, 10]: 12.22 (4.24) μM h
Cl/F (apparent oral clearance) [4, 10]: 10.48 (2.98) L/h
Cmax [4, 10]: 1010 nM
T1/2 [4, 10]: 7.63 (1.14) h
Vz/F (apparent volume of distribution) [4, 10]: 120.53 (35.87) L
Tmax ([4]; 40 mg (day 1, 3, 4, 5), Day 1, cycle 1, plasma): 2.00 (2.36) h
AUC0–4 [4, 11]: 11.13 (3.36) μM h
AUC0–∞ [4, 11]: 14.42 (7.91) μM h
Cl/F (apparent oral clearance) [4, 11]: 8.88 (3.23) L/h
Cmax [4, 11]: 960 nM
T1/2 [4, 11]: 9.98 (6.79) h
Vz/F (apparent volume of distribution) [4, 11]: 127.81 (54.36) L
Tmax ([4]; 40 mg (day 1, 3, 4, 5), Day 5, cycle 1, plasma): 4.00 (2.60) h
AUC0–4 [4, 12]: 7.20 (1.06) μM h
AUC0–∞ [4, 12]: 7.90 (1.10) μM h
Cl/F (apparent oral clearance) [4, 12]: 16.22 (2.15) L/h
Cmax [4, 12]: 710 nM
T1/2 [4, 12]: 6.63 (0.29) h
Vz/F (apparent volume of distribution) [4, 12]: 155.67 (27.03) L
Tmax ([4]; 40 mg (day 1, 3, 5), Day 1, cycle 1, plasma): 2.00 (1.15) h
AUC0–4 [4, 13]: 6.94 (0.64) μM h
AUC0–∞ [4, 13]: 7.71 (1.10) μM h
Cl/F (apparent oral clearance) [4, 13]: 16.61 (2.22) L/h
Cmax [4, 13]: 860 nM
T1/2 [4, 13]: 6.93 (1.26) h
Vz/F (apparent volume of distribution) [4, 13]: 166.11 (9.73) L
Tmax ([4]; 40 mg (day 1, 3, 5), Day 5, cycle 1, plasma): 1.50 (0.29) h
Cmax ([4]; read-out: Cmax values, DL1, days 1 and 5): 150 to 350 nM
Cmax ([4]; read-out: Cmax values, DL2, days 1 and 5): 710 to 860 nM
Cmax ([4]; read-out: Cmax values, DL3, days 1 and 5): 960 to 1010 nM
patients with worsening hypertension ([5]; AR-42 followed by decitabine, 13 AML patients): 4
Number of Patients with grade ≥ 3 in cycles 1 and 2: Alanine aminotransferase increased [5, 14]: 1
Number of Patients with grade ≥ 3 in cycles 1 and 2: Alkalosis [5, 14]: 1
Number of Patients with grade ≥ 3 in cycles 1 and 2: Aspartate aminotransferase increased [5, 14]: 2
Number of Patients with grade ≥ 3 in cycles 1 and 2: Blood bilirubin increased [5, 14]: 1
Number of Patients with grade ≥ 3 in cycles 1 and 2: Cardiac troponin increased [5, 14]: 1
Number of Patients with grade ≥ 3 in cycles 1 and 2: Catheter-related infection [5, 14]: 2
Number of Patients with grade ≥ 3 in cycles 1 and 2: Fall [5, 14]: 1
Number of Patients with grade ≥ 3 in cycles 1 and 2: Febrile neutropenia [5, 14]: 9
Number of Patients with grade ≥ 3 in cycles 1 and 2: Heart failure [5, 14]: 1
Number of Patients with grade ≥ 3 in cycles 1 and 2: Hyperglycemia [5, 14]: 3
Number of Patients with grade ≥ 3 in cycles 1 and 2: Hypertension [5, 14]: 4
Number of Patients with grade ≥ 3 in cycles 1 and 2: Hyperuricemia [5, 14]: 1
Number of Patients with grade ≥ 3 in cycles 1 and 2: Hypoalbuminemia [5, 14]: 1
Number of Patients with grade ≥ 3 in cycles 1 and 2: Hypokalemia [5, 14]: 3
Number of Patients with grade ≥ 3 in cycles 1 and 2: Hyponatremia [5, 14]: 5
Number of Patients with grade ≥ 3 in cycles 1 and 2: Hypophosphatemia [5, 14]: 2
Number of Patients with grade ≥ 3 in cycles 1 and 2: Hypotension [5, 14]: 2
Number of Patients with grade ≥ 3 in cycles 1 and 2: Hypoxia [5, 14]: 6
Number of Patients with grade ≥ 3 in cycles 1 and 2: Lung infection [5, 14]: 5
Number of Patients with grade ≥ 3 in cycles 1 and 2: Rash maculo-papular [5, 14]: 1
Number of Patients with grade ≥ 3 in cycles 1 and 2: Respiratory failure [5, 14]: 1
Number of Patients with grade ≥ 3 in cycles 1 and 2: Sepsis [5, 14]: 3
Number of Patients with grade ≥ 3 in cycles 1 and 2: Sinus tachycardia [5, 14]: 1
Number of Patients with grade ≥ 3 in cycles 1 and 2: Syncope [5, 14]: 1
dose limiting toxicities (DLTs) ([5]; DL1: AR-42 20 mg daily days 1, 3, 5, then decitabine, 3 patients): no DLTs
dose limiting toxicities (DLTs) ([5]; DL2: AR-42 40 mg daily days 1, 3, 5, then decitabine, 3 patients): no DLTs
dose limiting toxicities (DLTs) ([5]; DL3: AR-42 40 mg daily days 1, 3, 4, 5, then decitabine): One DLT of polymicrobial sepsis and multi-organ failure
patients who also experienced a grade 3 or 4 infection ([5]; of the six patients with neutropenia in cycle 1): 4
cardiac toxicities ([5]; patients treated with AR-42): minimal cardiac toxicities
increase of at least 100% in miR-29b expression (miR-29b [6]; DL1: AR-42 20 mg days 1, 3, 5, day 5 of cycle 1 over baseline): not observed
increase in miR-29b expression of at least 100% (miR-29b [6]; DL2: AR-42 40 mg days 1, 3, 5, day 5 of cycle 1 over baseline): not observed
increase in miR-29b expression (miR-29b [6]; DL3: AR-42 40 mg days 1, 3, 4, 5, day 5 of cycle 1 over baseline): not observed
doubling in either the mature or primary miR at day 5 prior to decitabine administration (miR-29b [6]; all dose levels, current schedule): did not observe a doubling
correlation between miR-29b ΔΔCT values and Cmax (miR-29b [6]; human, in vivo): weak correlation
apoptosis (AML cell lines; AML cell lines): dose dependent apoptosis
effect on cell cycle (AML cell lines; AML cell lines): cell cycle arrest at both S and G2/M phases
anti-leukemic activity (AML cell lines; sequential administration of AR-42 followed by decitabine, compared to either drug alone): stronger anti-leukemic activity
IC50 (cancer cells): submicromolar
miR-29b expression (miR-29b [7]; AML cells, 1 μM AR-42, after 24 h): miR-29b induction
miR-29b expression (miR-29b [7]; Kasumi-1 AML cells, in vitro): upregulated
miR-29b transcription (miR-29b [7]; in vitro): increase
number of patients who achieved a CRi (AML): 2
